According to PubChem BioAssay (NCI):
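96-well plates; 48 h exposure; 5 concentrations. Endpoints by linear interpolation between flanking doses. Not reached: highest tested concentration assigned. GI50 is the concentration that inhibits growth by half. TGI marks complete inhibition of growth.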

Key:
Test in all cases: NCI anticancer screen, dose series, 48 h
BT-549 breast = tested on: BT-549 breast
SK-MEL-5 melanoma = tested on: SK-MEL-5 melanoma
UACC-62 melanoma = tested on: UACC-62 melanoma
HCT-15 colon = tested on: HCT-15 colon
NCI-H226 lung = tested on: NCI-H226 lung
SNB-75 CNS = tested on: SNB-75 CNS
OVCAR-4 ovarian = tested on: OVCAR-4 ovarian
SW-620 colon = tested on: SW-620 colon
U251 CNS = tested on: U251 CNS
UO-31 renal = tested on: UO-31 renal
HCC-2998 colon = tested on: HCC-2998 colon
HT29 colon = tested on: HT29 colon
MCF7 breast = tested on: MCF7 breast
CCRF-CEM leukemia = tested on: CCRF-CEM leukemia
T-47D breast = tested on: T-47D breast
SN12C renal = tested on: SN12C renal
NCI-H522 lung = tested on: NCI-H522 lung
NCI/ADR-RES ovarian = tested on: NCI/ADR-RES ovarian
PC-3 prostate = tested on: PC-3 prostate
EKVX NSCLC = tested on: EKVX NSCLC
786-0 renal = tested on: 786-0 renal
SF-295 CNS = tested on: SF-295 CNS
A549 NSCLC = tested on: A549 NSCLC
MDA-MB-435 = tested on: MDA-MB-435
MDA-MB-231 breast = tested on: MDA-MB-231 breast
ACHN renal = tested on: ACHN renal
SF-539 CNS = tested on: SF-539 CNS
SK-MEL-28 melanoma = tested on: SK-MEL-28 melanoma
M14 melanoma = tested on: M14 melanoma
OVCAR-5 ovarian = tested on: OVCAR-5 ovarian
SK-MEL-2 melanoma = tested on: SK-MEL-2 melanoma
OVCAR-8 ovarian = tested on: OVCAR-8 ovarian
HS 578T breast = tested on: HS 578T breast
IGROV1 ovarian = tested on: IGROV1 ovarian
HCT-116 colon = tested on: HCT-116 colon
CAKI-1 renal = tested on: CAKI-1 renal
OVCAR-3 ovarian = tested on: OVCAR-3 ovarian
LOX IMVI melanoma = tested on: LOX IMVI melanoma
SK-OV-3 ovarian = tested on: SK-OV-3 ovarian
SNB-19 CNS = tested on: SNB-19 CNS
DU-145 prostate = tested on: DU-145 prostate
KM12 colon = tested on: KM12 colon
RXF 393 renal = tested on: RXF 393 renal
HOP-92 NSCLC = tested on: HOP-92 NSCLC
HOP-62 NSCLC = tested on: HOP-62 NSCLC
NCI-H460 lung = tested on: NCI-H460 lung
COLO 205 colon = tested on: COLO 205 colon
RPMI-8226 leukemia = tested on: RPMI-8226 leukemia
A498 renal = tested on: A498 renal
MALME-3M melanoma = tested on: MALME-3M melanoma
TK-10 renal = tested on: TK-10 renal
SF-268 CNS = tested on: SF-268 CNS
UACC-257 melanoma = tested on: UACC-257 melanoma

SMILES: N#Cc1nc(-c2ccccc2)oc1S(=O)(=O)N1CCCCC1
- GI50 (BT-549 breast): 13.7 µM
- TGI (BT-549 breast): 48.8 µM
- GI50 (SK-MEL-5 melanoma): 30.9 µM
- TGI (SK-MEL-5 melanoma): > 100 µM
- GI50 (UACC-62 melanoma): 19.5 µM
- TGI (UACC-62 melanoma): 49.6 µM
- GI50 (HCT-15 colon): 5.32 µM
- TGI (HCT-15 colon): 25.8 µM
- GI50 (NCI-H226 lung): 10.3 µM
- TGI (NCI-H226 lung): 26.5 µM
- GI50 (SNB-75 CNS): 18.3 µM
- TGI (SNB-75 CNS): 43.8 µM
- GI50 (OVCAR-4 ovarian): 14.2 µM
- TGI (OVCAR-4 ovarian): 32.3 µM
- GI50 (SW-620 colon): 4.17 µM
- TGI (SW-620 colon): 18.1 µM
- GI50 (U251 CNS): 17.5 µM
- TGI (U251 CNS): 36.8 µM
- GI50 (UO-31 renal): 15.1 µM
- TGI (UO-31 renal): 28.3 µM
- GI50 (HCC-2998 colon): 17.1 µM
- TGI (HCC-2998 colon): 32.8 µM
- GI50 (HT29 colon): 12.4 µM
- TGI (HT29 colon): 28.4 µM
- GI50 (MCF7 breast): 9.02 µM
- TGI (MCF7 breast): 26.9 µM
- GI50 (CCRF-CEM leukemia): 2.36 µM
- TGI (CCRF-CEM leukemia): > 100 µM
- GI50 (T-47D breast): 16.2 µM
- TGI (T-47D breast): 36.8 µM
- GI50 (SN12C renal): 14.9 µM
- TGI (SN12C renal): 47.5 µM
- GI50 (NCI-H522 lung): 2.08 µM
- TGI (NCI-H522 lung): 7.94 µM
- GI50 (NCI/ADR-RES ovarian): 30.8 µM
- TGI (NCI/ADR-RES ovarian): > 100 µM
- GI50 (PC-3 prostate): 19.4 µM
- TGI (PC-3 prostate): 53.6 µM
- GI50 (EKVX NSCLC): > 100 µM
- TGI (EKVX NSCLC): > 100 µM
- GI50 (786-0 renal): 18.7 µM
- TGI (786-0 renal): 52.4 µM
- GI50 (SF-295 CNS): > 100 µM
- TGI (SF-295 CNS): > 100 µM
- GI50 (A549 NSCLC): 71.7 µM
- TGI (A549 NSCLC): > 100 µM
- GI50 (MDA-MB-435): 14.6 µM
- TGI (MDA-MB-435): 31.2 µM
- GI50 (MDA-MB-231 breast): 25.4 µM
- TGI (MDA-MB-231 breast): 80.7 µM
- GI50 (ACHN renal): 4.98 µM
- TGI (ACHN renal): 16.5 µM
- GI50 (SF-539 CNS): 17.5 µM
- TGI (SF-539 CNS): 34.3 µM
- GI50 (SK-MEL-28 melanoma): 17.5 µM
- TGI (SK-MEL-28 melanoma): 33.8 µM
- GI50 (M14 melanoma): 11.2 µM
- TGI (M14 melanoma): 61 µM
- GI50 (OVCAR-5 ovarian): 21.9 µM
- TGI (OVCAR-5 ovarian): 52.8 µM
- GI50 (SK-MEL-2 melanoma): 15.3 µM
- TGI (SK-MEL-2 melanoma): 45.1 µM
- GI50 (OVCAR-8 ovarian): 22.1 µM
- TGI (OVCAR-8 ovarian): 56.5 µM
- GI50 (HS 578T breast): 23.1 µM
- TGI (HS 578T breast): 87.2 µM
- GI50 (IGROV1 ovarian): 28.7 µM
- TGI (IGROV1 ovarian): > 100 µM
- GI50 (HCT-116 colon): 4.95 µM
- TGI (HCT-116 colon): 23.6 µM
- GI50 (CAKI-1 renal): 7.37 µM
- TGI (CAKI-1 renal): 20.3 µM
- GI50 (OVCAR-3 ovarian): 10.5 µM
- TGI (OVCAR-3 ovarian): 24.4 µM
- GI50 (LOX IMVI melanoma): 1.51 µM
- TGI (LOX IMVI melanoma): 5.24 µM
- GI50 (SK-OV-3 ovarian): > 100 µM
- TGI (SK-OV-3 ovarian): > 100 µM
- GI50 (SNB-19 CNS): 72.3 µM
- TGI (SNB-19 CNS): > 100 µM
- GI50 (DU-145 prostate): 15.3 µM
- TGI (DU-145 prostate): 28.6 µM
- GI50 (KM12 colon): 29.1 µM
- TGI (KM12 colon): > 100 µM
- GI50 (RXF 393 renal): 9.52 µM
- TGI (RXF 393 renal): 22.7 µM
- GI50 (HOP-92 NSCLC): 6.29 µM
- TGI (HOP-92 NSCLC): 19.6 µM
- GI50 (HOP-62 NSCLC): > 100 µM
- TGI (HOP-62 NSCLC): > 100 µM
- GI50 (NCI-H460 lung): 26.6 µM
- TGI (NCI-H460 lung): > 100 µM
- GI50 (COLO 205 colon): 2.67 µM
- TGI (COLO 205 colon): 7.1 µM
- GI50 (RPMI-8226 leukemia): 17.5 µM
- TGI (RPMI-8226 leukemia): 49.5 µM
- GI50 (A498 renal): > 100 µM
- TGI (A498 renal): > 100 µM
- GI50 (MALME-3M melanoma): 10.8 µM
- TGI (MALME-3M melanoma): 32 µM
- GI50 (TK-10 renal): 22.1 µM
- TGI (TK-10 renal): 63.2 µM
- GI50 (SF-268 CNS): 26.6 µM
- TGI (SF-268 CNS): > 100 µM
- GI50 (UACC-257 melanoma): 17.8 µM
- TGI (UACC-257 melanoma): 50.4 µM
